Assay results from ChEMBL document CHEMBL4393727, “Investigating 1,2,3,4,5,6-hexahydroazepino[4,3-b]indole as scaffold of butyrylcholinesterase-selective inhibitors with additional neuroprotective activities for Alzheimer's disease” (Eur J Med Chem, 2019).
Activity calls are given as the source filed them. No cut-off for these calls is given here.

Columns and labels:
[1] = target: Acetylcholinesterase (Electrophorus electricus, UniProt O42275); assay: Inhibition of electric eel AChE using acetylthiocholine iodide as substrate preincubated for 20 mins followed by substrate addition and measured upto 5 mins by Ellman's method
[2] = target: T1, Cholinesterase (Equus caballus, UniProt P81908); assay: Inhibition of equine serum BChE using butyrylthiocholine as substrate preincubated for 20 mins followed by substrate addition and measured upto 5 mins by Ellman's method
[3] = target: Amyloid-beta precursor protein (Homo sapiens) (UniProt P05067); assay: Inhibition of HFIP treated amyloid beta (1 to 40) (unknown origin) self-induced aggregation at 100 uM measured after 2 hrs by Thioflavin T fluorescence assay relative to control
[4] = Selectivity index, ratio of IC50 for electric eel AChE to IC50 for equine serum BuChE
[5] = tested on: SH-SY5Y; assay: Neuroprotective activity against H2O2-induced oxidative stress in human SH-SY5Y cells assessed as reduction in ROS generation preincubated for 1 hr followed by DCFH-DA addition for 30 mins and subsequent co-treatment with compound and H2O2 for 30 min by fluorescence assay; type: functional, cell-based
[6] = target: T1, Cholinesterase; assay: Mixed type inhibition of equine serum BChE assessed as Ki using butyrylthiocholine as substrate preincubated for 20 mins followed by substrate addition and measured upto 5 mins by Ellman's method based Lineweaver-Burk plot analysis
[7] = target: Acetylcholinesterase (Homo sapiens, UniProt P22303); assay: Inhibition of human AChE using acetylthiocholine iodide as substrate preincubated for 20 mins followed by substrate addition and measured upto 5 mins by Ellman's method
[8] = target: Cholinesterase (Homo sapiens, UniProt P06276); assay: Inhibition of human BChE using butyrylthiocholine as substrate preincubated for 20 mins followed by substrate addition and measured upto 5 mins by Ellman's method
[9] = tested on: SH-SY5Y; assay: Neuroprotection activity against amyloid beta (1 to 42)-induced toxicity in human SH-SY5Y cells assessed as recovery of viability at 5 uM measured after 24 hrs by MTT assay relative to control; type: functional
[10] = tested on: SH-SY5Y; assay: Neuroprotection activity against amyloid beta (1 to 42)-induced cytotoxicity in human SH-SY5Y cells assessed as recovery of viability at 5 uM measured after 48 hrs by MTT assay relative to control; type: functional
[11] = tested on: SH-SY5Y; assay: Cytotoxicity in human SH-SY5Y cells assessed as decrease in cell viability at 5 uM measured after 48 hrs by MTT assay relative to control; type: cell-based
[12] = tested on: SH-SY5Y; assay: Neuroprotection activity against amyloid beta (1 to 42)-induced cytotoxicity in human SH-SY5Y cells assessed as recovery of viability at 5 uM by MTT assay; type: functional, cell-based; conditions: TDE = time-dependent effect
[13] = Aqueous solubility of the compound in phosphate buffered saline at pH 7.4 by reverse phase HPLC analysis; type: physicochemical
[14] = Selectivity index, ratio of IC50 for electric eel AChE to IC50 for human BuChE
[15] = tested on: SH-SY5Y; assay: Neuroprotective activity against H2O2-induced oxidative stress in human SH-SY5Y cells assessed as reduction in ROS generation at 100 uM preincubated for 1 hr followed by DCFH-DA addition for 30 mins and subsequent co-treatment with compound and H2O2 for 30 min by fluorescence assay; type: functional, cell-based
[16] = target: Amyloid-beta precursor protein (Homo sapiens) (UniProt P05067); assay: Inhibition of HFIP treated amyloid beta (1 to 40) (unknown origin) self-induced aggregation at 100 uM measured after 2 hrs by Thioflavin T fluorescence assay

Sequence of Amyloid-beta precursor protein (Homo sapiens) (P05067 whole entry): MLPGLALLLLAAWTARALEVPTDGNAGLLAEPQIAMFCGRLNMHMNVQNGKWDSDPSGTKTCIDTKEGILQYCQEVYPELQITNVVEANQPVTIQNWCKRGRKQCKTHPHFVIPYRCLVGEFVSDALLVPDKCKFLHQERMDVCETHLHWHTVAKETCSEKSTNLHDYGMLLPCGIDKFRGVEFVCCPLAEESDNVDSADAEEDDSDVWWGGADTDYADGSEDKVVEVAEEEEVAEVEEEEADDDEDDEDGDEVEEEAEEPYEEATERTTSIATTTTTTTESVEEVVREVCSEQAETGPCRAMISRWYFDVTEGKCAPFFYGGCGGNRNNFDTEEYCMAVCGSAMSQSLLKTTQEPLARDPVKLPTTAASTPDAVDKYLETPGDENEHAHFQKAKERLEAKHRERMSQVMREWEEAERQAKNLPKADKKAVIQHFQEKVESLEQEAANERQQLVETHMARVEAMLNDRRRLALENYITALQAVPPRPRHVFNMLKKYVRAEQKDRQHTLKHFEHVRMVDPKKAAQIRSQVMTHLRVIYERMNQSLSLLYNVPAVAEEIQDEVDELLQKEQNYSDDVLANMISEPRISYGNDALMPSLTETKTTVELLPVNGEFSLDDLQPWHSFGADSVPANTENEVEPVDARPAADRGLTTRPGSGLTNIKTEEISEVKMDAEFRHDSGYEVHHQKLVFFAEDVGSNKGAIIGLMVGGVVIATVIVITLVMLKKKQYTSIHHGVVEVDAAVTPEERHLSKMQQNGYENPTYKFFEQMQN
Sequence of Acetylcholinesterase (Electrophorus electricus, UniProt O42275) (O42275 whole entry): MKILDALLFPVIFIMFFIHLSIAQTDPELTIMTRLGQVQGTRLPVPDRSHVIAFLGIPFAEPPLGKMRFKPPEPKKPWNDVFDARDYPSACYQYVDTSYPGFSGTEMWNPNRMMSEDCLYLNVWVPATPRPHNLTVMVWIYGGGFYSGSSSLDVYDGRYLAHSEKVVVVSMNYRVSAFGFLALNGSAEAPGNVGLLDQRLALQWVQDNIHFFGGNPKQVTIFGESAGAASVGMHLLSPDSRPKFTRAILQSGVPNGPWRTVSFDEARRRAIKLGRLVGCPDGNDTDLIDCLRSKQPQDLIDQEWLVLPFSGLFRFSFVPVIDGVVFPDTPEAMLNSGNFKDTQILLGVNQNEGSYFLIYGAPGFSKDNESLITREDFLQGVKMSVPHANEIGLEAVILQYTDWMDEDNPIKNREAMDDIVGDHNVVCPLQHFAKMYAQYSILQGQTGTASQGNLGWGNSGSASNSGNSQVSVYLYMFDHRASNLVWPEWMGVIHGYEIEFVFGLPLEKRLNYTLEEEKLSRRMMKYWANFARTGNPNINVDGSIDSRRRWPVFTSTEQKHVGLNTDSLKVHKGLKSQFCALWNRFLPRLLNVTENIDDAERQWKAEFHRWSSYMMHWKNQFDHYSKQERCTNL
T1 sequence (P81908 whole entry): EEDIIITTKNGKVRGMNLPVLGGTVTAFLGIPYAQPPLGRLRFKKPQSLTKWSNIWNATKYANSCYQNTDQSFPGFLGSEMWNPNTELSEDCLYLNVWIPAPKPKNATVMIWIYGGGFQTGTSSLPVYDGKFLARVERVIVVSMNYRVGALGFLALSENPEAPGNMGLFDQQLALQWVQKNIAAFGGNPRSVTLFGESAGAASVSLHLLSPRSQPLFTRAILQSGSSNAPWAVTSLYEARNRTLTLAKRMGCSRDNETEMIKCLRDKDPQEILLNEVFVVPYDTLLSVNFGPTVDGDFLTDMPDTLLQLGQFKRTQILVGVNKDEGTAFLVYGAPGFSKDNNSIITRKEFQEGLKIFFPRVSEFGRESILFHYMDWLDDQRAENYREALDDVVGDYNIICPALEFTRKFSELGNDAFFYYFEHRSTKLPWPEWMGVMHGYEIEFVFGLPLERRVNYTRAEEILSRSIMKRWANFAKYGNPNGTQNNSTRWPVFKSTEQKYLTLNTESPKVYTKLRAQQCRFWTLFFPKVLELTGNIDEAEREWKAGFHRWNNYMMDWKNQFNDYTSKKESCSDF
Sequence of Cholinesterase (Homo sapiens, UniProt P06276) (P06276 whole entry): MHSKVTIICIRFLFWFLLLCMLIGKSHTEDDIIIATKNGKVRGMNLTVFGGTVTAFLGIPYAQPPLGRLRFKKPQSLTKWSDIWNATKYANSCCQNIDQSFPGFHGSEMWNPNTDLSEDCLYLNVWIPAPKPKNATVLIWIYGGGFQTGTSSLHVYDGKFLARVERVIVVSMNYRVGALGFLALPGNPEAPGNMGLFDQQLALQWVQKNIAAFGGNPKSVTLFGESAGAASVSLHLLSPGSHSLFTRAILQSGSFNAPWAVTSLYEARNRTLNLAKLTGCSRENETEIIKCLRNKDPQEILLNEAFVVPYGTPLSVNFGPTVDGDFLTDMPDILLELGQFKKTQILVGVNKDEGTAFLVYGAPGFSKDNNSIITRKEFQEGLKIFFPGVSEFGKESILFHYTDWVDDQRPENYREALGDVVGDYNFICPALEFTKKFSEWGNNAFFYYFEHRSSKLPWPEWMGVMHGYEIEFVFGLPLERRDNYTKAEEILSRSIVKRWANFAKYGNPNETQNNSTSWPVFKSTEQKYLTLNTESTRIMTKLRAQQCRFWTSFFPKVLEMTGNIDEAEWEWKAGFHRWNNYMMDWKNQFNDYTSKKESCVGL
Sequence of Acetylcholinesterase (Homo sapiens, UniProt P22303) (P22303 whole entry): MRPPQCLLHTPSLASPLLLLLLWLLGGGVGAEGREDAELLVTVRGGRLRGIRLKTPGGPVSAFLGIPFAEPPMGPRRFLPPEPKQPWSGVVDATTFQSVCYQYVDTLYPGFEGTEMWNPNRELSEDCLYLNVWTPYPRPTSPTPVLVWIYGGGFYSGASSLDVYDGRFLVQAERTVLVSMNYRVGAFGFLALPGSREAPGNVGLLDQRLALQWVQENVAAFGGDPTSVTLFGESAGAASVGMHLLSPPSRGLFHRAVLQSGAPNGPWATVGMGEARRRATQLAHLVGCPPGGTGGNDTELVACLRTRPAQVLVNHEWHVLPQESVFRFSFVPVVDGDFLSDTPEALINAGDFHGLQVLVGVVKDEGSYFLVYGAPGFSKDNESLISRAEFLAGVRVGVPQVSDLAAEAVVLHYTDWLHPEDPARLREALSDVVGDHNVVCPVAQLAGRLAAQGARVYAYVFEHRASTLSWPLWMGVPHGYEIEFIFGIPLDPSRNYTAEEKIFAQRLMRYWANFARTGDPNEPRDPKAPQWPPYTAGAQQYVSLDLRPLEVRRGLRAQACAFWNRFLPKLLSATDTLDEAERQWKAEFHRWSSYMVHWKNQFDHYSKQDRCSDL

Row | SMILES | IC50 [1] | IC50 [2] | Ratio IC50 [4] | also measured
1 | c1ccc(CN2CCCc3[nH]c4ccccc4c3C2)cc1 | 8.7 µM | 2 µM | – | inhibition [3]: 38 to 54%
2 | CCN(CC)Cc1ccc(CN2CCCc3[nH]c4ccc(F)cc4c3C2)cc1 | 4.8 µM | 1.4 µM | – | –
3 | Fc1ccc2[nH]c3c(c2c1)CN(Cc1ccccc1)CCC3 | 4.96 µM | 2.13 µM | – | –
4 | Cc1ccc(CN2CCCc3[nH]c4ccccc4c3C2)cc1 | 10 µM | 0.95 µM | 10 | –
5 | c1ccc2c3c([nH]c2c1)CCCNC3 | 70 µM | 20 µM | – | –
6 | Cl.c1ccc(CCCCN2CCCc3[nH]c4ccccc4c3C2)cc1 | 20 µM | 0.17 µM | > 100 | Activity [5]: Dose-dependent effect; IC50 [5]: 10.1 µM; Ki [6]: 0.098 µM; IC50 [7]: 20 µM; IC50 [8]: 0.199 µM; inhibition [3]: 38 to 54%; Activity [9]: 35%; Activity [10]: 30%; Activity [11]: 30%; Activity [12]: Tde; solubility [13]: > 1000 µM; Ratio IC50 [14]: > 100
7 | Cc1ccc2[nH]c3c(c2c1)CN(Cc1ccccc1)CCC3 | 6.95 µM | 1.2 µM | – | –
8 | Fc1ccc2[nH]c3c(c2c1)CN(Cc1ccc(CN2CCCC2)cc1)CCC3 | 7.9 µM | 4.3 µM | – | –
9 | Fc1ccc2[nH]c3c(c2c1)CCCN(Cc1ccccc1)C3 | 10.7 µM | 3.4 µM | – | –
10 | CN1CCCc2[nH]c3ccccc3c2C1 | 7.1 µM | 25 µM | – | –
11 | Cc1ccc2[nH]c3c(c2c1)CNCCC3 | 45 µM | 8 µM | – | –
12 | Cl.c1ccc(CCN2CCCc3[nH]c4ccccc4c3C2)cc1 | 9 µM | 0.7 µM | 10 to 100 | inhibition [3]: 38 to 54%; solubility [13]: > 1000 µM
13 | Fc1ccc(CN2CCCc3[nH]c4ccccc4c3C2)cc1 | 12 µM | 1.2 µM | 10 | –
14 | Fc1ccc2[nH]c3c(c2c1)CNCCC3 | 16 µM | 4.3 µM | – | –
15 | Cn1c2c(c3ccccc31)CN(CCc1ccccc1)CCC2 | 12 µM | 0.86 µM | 10 to 100 | inhibition [3]: 38 to 54%
16 | Cc1ccc2[nH]c3c(c2c1)CN(C)CCC3 | 25 µM | 7.1 µM | – | –
17 | Cl.c1ccc(CCCN2CCCc3[nH]c4ccccc4c3C2)cc1 | 20 µM | 0.28 µM | 10 to 100 | inhibition [3]: 38 to 54%; solubility [13]: > 1000 µM
18 | O=C(c1ccccc1)N1CCCc2[nH]c3ccc(F)cc3c2C1 | 10.6 µM | 6 µM | – | –
19 | O=c1c(O)c(-c2ccc(O)c(O)c2)oc2cc(O)cc(O)c12 | – | – | – | Activity [15]: Active; inhibition [16]: Active
20 | Fc1ccc(CN2CCCc3[nH]c4ccc(F)cc4c3C2)cc1 | 4.1 µM | 2.9 µM | – | –
